Reference: patent US9040545B2, “Heterocyclyl pyrazolopyrimidine analogues as selective JAK inhibitors” (Cellzome Limited, priority 2010, dated 2015)

Assays:
JAK2 = molecular target: T1, JAK2 (Homo sapiens, UniProt O60674); assay: Kinobeads assay, JAK2; format: binding; conditions: mixed Molt4/Ramos lysate, read-out: Inhibition values (IC50) JAK2
T1 construct: endogenous in cells; host or cells: mixed Molt4/Ramos lysate (1:2)
Description: (§1) The compounds of the present invention as described in the previous examples were tested in a Kinobeads™ assay as described for ZAP-70 (WO-A 2007/137867). Briefly, test compounds (at various concentrations) and the affinity matrix with the immobilized aminopyrido-pyrimidine ligand 24 were added to cell lysate aliquots and allowed to bind to the proteins in the lysate sample. After the incubation time the beads with captured proteins were separated from the lysate. Bound proteins were then eluted and the presence of JAK2 and JAK3 was detected and quantified using specific antibodies in a dot blot procedure and the Odyssey infrared detection system. Dose response curves for individual kinases were generated and IC50 values calculated. Kinobeads™ assays for ZAP-70 (WO-A 2007/137867) and for kinase selectivity profiling (WO-A 2006/134056) have been previously described.
(§2) The affinity matrix was washed two times with 15 mL of 1×DP buffer containing 0.2% NP40 (IGEPAL® CA-630, Sigma, #I3021) and then resuspended in 1×DP buffer containing 0.2% NP40 (3% beads slurry).
(§3) 5×DP buffer 250 mM Tris-HCl pH 7.4, 25% Glycerol, 7.5 mM MgCl2, 750 mM NaCl, 5 mM Na3VO4; filter the 5×DP buffer through a 0.22 μm filter and store in aliquots at −80° C. The 5×DP buffer is diluted with H2O to 1×DP buffer containing 1 mM DTT and 25 mM NaF.
(§4) Stock solutions of test compounds were prepared in DMSO. In a 96 well plate 30 μL solution of diluted test compounds at 5 mM in DMSO were prepared. Starting with this solution a 1:3 dilution series (9 steps) was prepared. For control experiments (no test compound) a buffer containing 2% DMSO was used.
Molt4 cells (ATCC catalogue number CRL-1582) and Ramos cells (ATCC catalogue number CRL-1596) were grown in 1 L Spinner flasks (Integra Biosciences, #182101) in suspension in RPMI 1640 medium (Invitrogen, #21875-034) supplemented with 10% Fetal Bovine Serum (Invitrogen) at a density between 0.15×106 and 1.2×10^6 cells/mL. Cells were harvested by centrifugation, washed once with 1×PBS buffer (Invitrogen, #14190-094) and cell pellets were frozen in liquid nitrogen and subsequently stored at −80° C. Cells were homogenized in a Potter S homogenizer in lysis buffer: 50 mM Tris-HCl, 0.8% NP40, 5% glycerol, 150 mM NaCl, 1.5 mM MgCl2, 25 mM NaF, 1 mM sodium vanadate, 1 mM DTT, pH 7.5. One complete EDTA-free tablet (protease inhibitor cocktail, Roche Diagnostics, 1873580) per 25 mL buffer was added. The material was dounced 10 times using a mechanized POTTER S, transferred to 50 mL falcon tubes, incubated for 30 minutes on ice and spun down for 10 minutes at 20,000 g at 4° C. (10,000 rpm in Sorvall SLA600, precooled). The supernatant was transferred to an ultracentrifuge (UZ)-polycarbonate tube (Beckmann, 355654) and spun for 1 hour at 100,000 g at 4° C. (33.500 rpm in Ti50.2, precooled). The supernatant was transferred again to a fresh 50 mL falcon tube, the protein concentration was determined by a Bradford assay (BioRad) and samples containing 50 mg of protein per aliquot were prepared. The samples were immediately used for experiments or frozen in liquid nitrogen and stored frozen at −80° C.
(§5) Cell lysate (approximately 50 mg protein per plate) was thawed in a water bath at room temperature and then stored on ice. To the thawed cell lysate 1×DP 0.8% NP40 buffer containing protease inhibitors (1 tablet for 25 mL buffer; EDTA-free protease inhibitor cocktail; Roche Diagnostics 1873580) was added in order to reach a final protein concentration of 10 mg/mL total protein. The diluted cell lysate was stored on ice. Mixed Molt4/Ramos lysate was prepared by combining one volume of Molt4 lysate and two volumes of Ramos lysate (ratio 1:2).
To a 96 well filter plate (Multiscreen HTS, BV Filter Plates, Millipore #MSBVN1250) were added per well: 100 μL affinity matrix (3% beads slurry), 3 μL of compound solution, and 50 μL of diluted lysate. […]

Aurora B = molecular target: T2, Aurora B (Homo sapiens, UniProt Q96GD4); assay: Kinobeads assay, Aurora B; format: binding; conditions: for IC50: lysate of pervanadate-treated Jurkat cells, read-out: Inhibition values (IC50) Aur B
T2 construct: cell lysates from Jurkat cells (ATCC TIB-152) used; endogenous in cells; host or cells: Jurkat cells (ATCC TIB-152), treated with pervanadate
Description: as §1, §2, §3, §4, §5
To a 96 well filter plate (Multiscreen HTS, BV Filter Plates, Millipore #MSBVN1250) were added per well: 100 μL affinity matrix (3% beads slurry), 3 μL of compound solution, and 50 μL of diluted lysate. Plates were sealed and incubated for 3 hours in a cold room on a plate shaker (Heidolph tiramax 1000) at 750 rpm. Afterwards the plate was washed 3 times with 230 μL washing buffer (1×DP 0.4% NP40). The filter plate was placed on top of a collection 1 plate (Greiner bio-one, PP-microplate 96 well V-shape, 65120) and the beads were then eluted with 20 μL of sample buffer (100 mM Tris, pH 7.4, 4% SDS, 0.00025% bromophenol blue, 20% glycerol, 50 mM DTT). The eluate was frozen quickly at −80° C. and stored at −20° C.
The kinases in the eluates were detected and quantified by spotting on nitrocellulose membranes and using a first antibody directed against the kinase of interest and a fluorescently labelled secondary antibody (anti-rabbit IRDye™ antibody 800 (Licor, #926-32211). The Odyssey Infrared Imaging system from LI-COR Biosciences (Lincoln, Nebr., USA) was operated according to instructions provided by the manufacturer (Schutz-Geschwendener et al, 2004. Quantitative, two-color Western blot detection with infrared fluorescence. Published May 2004 by LI-COR Biosciences, www.licor.com).
After spotting of the eluates the nitrocellulose membrane (BioTrace NT; PALL, #BTNT30R) was first blocked by incubation with Odyssey blocking buffer (LICOR, 927-40000) for 1 hour at room temperature. Blocked membranes were then incubated for 16 hours at the temperature shown in Table 5 with the first antibody diluted in Odyssey blocking buffer (LICOR #927-40000). Afterwards the membrane was washed twice for 10 minutes with PBS buffer containing 0.2% Tween 20 at room temperature. […]

T2 sequence (Q96GD4 whole entry): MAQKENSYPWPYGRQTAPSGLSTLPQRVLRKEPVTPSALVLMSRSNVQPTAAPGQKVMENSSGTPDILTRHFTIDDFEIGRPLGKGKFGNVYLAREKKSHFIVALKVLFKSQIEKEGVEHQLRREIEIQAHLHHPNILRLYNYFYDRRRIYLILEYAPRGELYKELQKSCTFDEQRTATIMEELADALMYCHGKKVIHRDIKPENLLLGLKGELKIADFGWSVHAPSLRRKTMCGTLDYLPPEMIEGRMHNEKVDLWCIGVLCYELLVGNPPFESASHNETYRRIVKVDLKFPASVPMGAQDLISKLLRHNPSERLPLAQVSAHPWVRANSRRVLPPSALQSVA
T1 sequence (O60674 whole entry): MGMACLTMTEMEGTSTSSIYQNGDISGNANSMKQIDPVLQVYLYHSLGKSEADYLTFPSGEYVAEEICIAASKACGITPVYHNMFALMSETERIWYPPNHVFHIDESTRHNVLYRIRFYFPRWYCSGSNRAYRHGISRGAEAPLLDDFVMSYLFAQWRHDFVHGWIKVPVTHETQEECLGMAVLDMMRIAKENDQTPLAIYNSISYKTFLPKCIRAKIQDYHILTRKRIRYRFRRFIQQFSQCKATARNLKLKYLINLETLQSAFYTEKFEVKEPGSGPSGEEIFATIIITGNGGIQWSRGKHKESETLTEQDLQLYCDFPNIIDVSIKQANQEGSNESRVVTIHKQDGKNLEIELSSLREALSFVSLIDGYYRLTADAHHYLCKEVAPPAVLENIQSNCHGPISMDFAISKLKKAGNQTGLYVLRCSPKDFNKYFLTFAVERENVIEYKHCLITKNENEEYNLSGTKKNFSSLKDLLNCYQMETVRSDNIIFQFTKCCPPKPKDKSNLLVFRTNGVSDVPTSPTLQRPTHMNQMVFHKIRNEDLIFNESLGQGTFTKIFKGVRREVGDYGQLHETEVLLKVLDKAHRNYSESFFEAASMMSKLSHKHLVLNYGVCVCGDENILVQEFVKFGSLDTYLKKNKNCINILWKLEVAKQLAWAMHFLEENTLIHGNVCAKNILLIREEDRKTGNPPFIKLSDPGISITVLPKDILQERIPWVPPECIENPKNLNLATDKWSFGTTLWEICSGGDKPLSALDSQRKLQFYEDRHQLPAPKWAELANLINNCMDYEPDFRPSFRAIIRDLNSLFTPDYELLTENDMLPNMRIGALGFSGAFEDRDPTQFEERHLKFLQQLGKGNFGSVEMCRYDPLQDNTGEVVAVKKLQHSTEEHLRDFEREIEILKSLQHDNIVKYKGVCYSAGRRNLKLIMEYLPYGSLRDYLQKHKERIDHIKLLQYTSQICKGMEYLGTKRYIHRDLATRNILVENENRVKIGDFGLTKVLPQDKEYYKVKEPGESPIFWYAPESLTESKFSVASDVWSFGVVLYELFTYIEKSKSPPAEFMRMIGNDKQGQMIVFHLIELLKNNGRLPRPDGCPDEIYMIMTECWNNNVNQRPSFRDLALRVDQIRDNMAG

Row | Structure (SMILES) | IC50 (JAK2) [µM] | JAK3/AurB Fold Selectivity (Aurora B) | IC50 (Aurora B) [µM]
1 | Cn1cc(Nc2ncc3cnn(Cc4cccc(N5CCNCC5)c4)c3n2)cn1 [Example 22, N-(1-Methyl-1H-pyrazol-4-yl)-1-(3-(piperazin-1-yl)benzyl)-1H-pyrazolo[3,4-d]pyrimidin-6-amine] | 1 to 10 | >50 Fold | 0.1 to 1
2 | Cn1cc(Nc2ncc3cnn(Cc4cccc(CN5CCOCC5)c4)c3n2)cn1 [Example 7, N-(1-Methyl-1H-pyrazol-4-yl)-1-(3-(morpholinomethyl)benzyl)-1H-pyrazolo[3,4-d]pyrimidin-6-amine] | ≥ 10 | 10-50 Fold | 0.1 to 1
3 | Cn1cc(Nc2ncc3cnn(Cc4cccc(C5CCOCC5)c4)c3n2)cn1 [Example 9, N-(1-Methyl-1H-pyrazol-4-yl)-1-(3-(tetrahydro-2H-pyran-4-yl)benzyl)-1H-pyrazolo[3,4-d]pyrimidin-6-amine] | ≥ 10 | 10-50 Fold | 0.1 to 1
4 | Cn1cc(Nc2ncc3cnn(Cc4cccc(N5CC6(COC6)C5)c4)c3n2)cn1 [Example 89, 1-(3-(2-oxa-6-azaspiro[3.3]heptan-6-yl)benzyl)-N-(1-methyl-1H-pyrazol-4-yl)-1H-pyrazolo[3,4-d]pyrimidin-6-amine] | ≥ 10 | >50 Fold | 1 to 10
5 | NC(=O)CCn1cc(Nc2ncc3cnn(Cc4cccc(N5CCOCC5)c4)c3n2)cn1 [Example 14, 3-(4-((1-(3-Morpholinobenzyl)-1H-pyrazolo[3,4-d]pyrimidin-6-yl)amino)-1H-pyrazol-1-yl)propanamide] | ≥ 10 | 10-50 Fold | 0.1 to 1
6 | FC(F)Cn1cc(Nc2ncc3cnn(Cc4cccc(N5CCOCC5)c4)c3n2)cn1 [Example 23, N-(1-(2,2-Difluoroethyl)-1H-pyrazol-4-yl)-1-(3-morpholinobenzyl)-1H-pyrazolo[3,4-d]pyrimidin-6-amine] | ≥ 10 | >50 Fold | 1 to 10
7 | Cn1cc(Nc2ncc3cnn(Cc4cccc(N5CCOCC5)n4)c3n2)cn1 [Example 3, N-(1-Methyl-1H-pyrazol-4-yl)-1-((6-morpholinopyridin-2-yl)methyl)-1H-pyrazolo[3,4-d]pyrimidin-6-amine] | ≥ 10 | 10-50 Fold | 0.1 to 1

Second part, the compound after the results:

Row | IC50 (JAK2) [µM] | JAK3/AurB Fold Selectivity (Aurora B) | IC50 (Aurora B) [µM] | Structure (SMILES)
8 | 1 to 10 | 10-50 Fold | 0.1 to 1 | N#CCCn1cc(Nc2ncc3cnn(Cc4cc(F)cc(N5CCOCC5=O)c4)c3n2)cn1 [Example 107, 3-(4-((1-(3-fluoro-5-(3-oxomorpholino)benzyl)-1H-pyrazolo[3,4-d]pyrimidin-6-yl)amino)-1H-pyrazol-1-yl)propanenitrile]
9 | 1 to 10 | 10-50 Fold | 0.1 to 1 | O=C(c1cc(F)c(F)c(Cn2ncc3cnc(Nc4cnn(CCO)c4)nc32)c1F)N1CCOCC1 [Example 111, morpholino(2,4,5-trifluoro-3-((6-((1-(2-hydroxyethyl)-1H-pyrazol-4-yl)amino)-1H-pyrazolo[3,4-d]pyrimidin-1-yl)methyl)phenyl)methanone]
10 | 0.1 to 1 | >50 Fold | ≥ 10 | OCCn1cc(Nc2ncc3cnn(Cc4cc(F)cc(N5CCNCC5)c4F)c3n2)cn1 [Example 96, 2-(4-((1-(2,5-difluoro-3-(piperazin-1-yl)benzyl)-1H-pyrazolo[3,4-d]pyrimidin-6-yl)amino)-1H-pyrazol-1-yl)ethanol]
11 | ≥ 10 | 10-50 Fold | 1 to 10 | Cn1cc(Nc2ncc3cnn(Cc4cccc(-c5cn[nH]c5)c4)c3n2)cn1 [Example 118, 1-(3-(1H-pyrazol-4-yl)benzyl)-N-(1-methyl-1H-pyrazol-4-yl)-1H-pyrazolo[3,4-d]pyrimidin-6-amine]
